Results taken from paper PMC4555095, “Inhibitory effects of magnolol and honokiol on human calcitonin aggregation” (Scientific Reports, 2015).
pKd: −log10 of the molar value.

Biological target: T1, Human calcitonin (hCT) (Homo sapiens, UniProt P01258)
T1 construct: gene CALCA; mature 32-residue calcitonin peptide cut from the calcitonin precursor; disulfide Cys-1/Cys-7, C terminus amidated; no tag
T1 sequence (P01258 85-116 limits assumed): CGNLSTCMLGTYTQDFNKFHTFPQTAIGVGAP
Assay: isothermal titration calorimetry
Type: binding
Conditions: read-out: Kb

Structure (SMILES)	pKd
C=CCc1ccc(O)c(-c2ccc(O)c(CC=C)c2)c1 [honokiol]	5.19
C=CCc1ccc(O)c(-c2cc(CC=C)ccc2O)c1 [magnolol]	5.58
